Test results as given in patent US20090099095A1, “Novel neuroprotective peptide” (priority 2007, published 2009).

Assays:
[1] = tested on: cells in the dentate gyrus of OHSCs; experiment: Immunofluorescence count of dentate gyrus cells double-labelled for PI and DCX or NeuN after NMDA; assay type: cell-based, rat
Description: To determine the cell types which were protected by pentinin, we fixed OHSCs and performed immunofluorescence for markers of neuronally committed progenitors (DCX) and neurons (NeuN). Cells in the dentate gyrus were counted, and the percentage of cells double-labelled for PI and each marker was determined.
To characterise cell death, OHSCs were cultured in N2 medium with different concentrations of NMDA (in the presence of PI). After 24 h, OHSCs were washed in PBS and fixed in 4% paraformaldehyde (overnight, 4° C.). OHSCs were blocked and permeabilised by incubation for two hours in PTS (0.1M sodium phosphate buffer, 0.3% triton X-100 and 1% donkey serum (Jackson Immunoresearch Laboratories Inc., West Grove, Pa.)) at room temperature (RT), then incubated overnight (rocking, 4° C.) with mouse anti-NeuN antibody (1:500, Chemicon International Inc, Temecula, Calif.), rabbit anti-Caspase3A antibody (1:250, Cell Signalling Technology), and goat anti doublecortin antibody (Dcx, 1:400, Santa Cruz Biotechnology, Santa Cruz, USA). After thorough washing (3×30 mins in PTS, rocking), OHSCs were incubated overnight (rocking, 4° C.) with donkey anti-mouse Alexa 647-conjugated antibody (1:800, Molecular Probes, Leiden, Netherlands), donkey anti-rabbit Alexa 488-conjugated antibody (1:800, Molecular Probes) and donkey anti-goat Alexa 488-conjugated antibody (1:800, Molecular Probes). OHSCs were washed thoroughly and mounted in Prolong Gold mounting medium (Molecular Probes). Colocalisation of PI and/or Caspase3A staining with NeuN and Dcx immunofluorescence was determined by confocal microscopy (Leica TCS SP2, Leica Microsystems AG, Wetzlar, Germany).

[2] = tested on: organotypic hippocampal slice cultures (OHSCs); experiment: NMDA-induced excitotoxicity in organotypic hippocampal slice cultures, propidium iodide (PI) uptake; assay type: cell-based, rat
Description: To test the neuroprotective qualities of test media, OHSCs were first preincubated with PI for 24 hours. Fluorescent photomicrographs were taken, and used to determine the level of background staining. OHSCs were then transferred to test media one hour before 10 μM NMDA was added. Photomicrographs were taken again after 24 hours of NMDA exposure, and the change in PI staining intensity was quantified.
Rat organotypic hippocampal slice cultures (400 μm thick) were prepared from P9 Sprague-Dawley rats, using the method of Stoppini and coworkers^9. OHSCs were cultured in slice medium (50% BME, 25% EBSS, 23% horse serum, 7.5 mg/ml D-glucose, 1 mM L-glutamine and 25 U/ml PEST) for 12-14 days before experiments commenced.
OHSCs were transferred to test media one hour before exposure to 10 μM NMDA for 24 h. The degree of NMDA-induced excitotoxicity was determined by comparing propidium iodide (PI) uptake prior to exposure with that following exposure. Pictures were captured using a digital camera (Olympus DP50) coupled to an inverted fluorescence microscope (Olympus IX70), equipped with a red long-pass WG fluorescence filter. Uptake of PI was quantified as the mean pixel intensity of epifluorescence, over the whole slice, or in defined sub-regions (ImageJ v1.29x).

[3] = tested on: organotypic hippocampal slice cultures (OHSCs); settings: high doses, literature ref 10; cited from earlier work

Molecule: tyr, thr, pro, lys, thr (YTPKT; Human) [pentinin, pentameric peptide fragment corresponding to residues 26-30 of the insulin B chain]
- reduction of percentage of immature neuronal marker (DCX) cells co-labelled with PI ([1]; 100 pM pentinin): 86%
- reduction of percentage of mature neuronal marker (NeuN) cells co-labelled with PI ([1]; 100 pM pentinin): 64%
- number of neurons killed by NMDA-induced toxicity ([1]; 100 pM synthetic pentinin): markedly reduced
- effect on excitotoxicity induced by NMDA ([2]; 100 μM peptide in unconditioned medium): reduce excitotoxicity
- effective dose in dose response assay ([2]; synthetic peptide added to unconditioned medium, results not shown): 100 µM

B1: glial-derived neurotrophic factor (protein, UniProt P39905 78-211, looked up)
Glial cell line-derived …: SPDKQMAVLPRRERNRQAAAANPENSRGKGRRGQRGKNRGCVLTAIHLNVTDLGLGYETKEELIFRYCSGSCDAAETTYDKILKNLSRNRRLVSDKVGQACCRPIAFDDDLSFLDDNLVYHILRKHSAKRCGCI
notes: recombinant protein added to control medium at 1 ng/ml
- effect on NMDA-induced excitotoxicity / PI staining (in words) ([2]; whole slice, 10 μM NMDA 24 h, GDNF at 1 ng/ml where added): did not reduce excitotoxicity
- doses at which neuroprotective in OHSCs [3]: 50 to 100 ng/mL
